This note sets out measurements from PMC10709440, “High-throughput ligand profile characterization in novel cell lines expressing seven heterologous insect olfactory receptors for the detection of volatile plant biomarkers” (Scientific Reports, 2023).

Test [1] concerns the target T1, Drosophila OR49b (Drosophila melanogaster, UniProt Q9V6H2).
T1 construct: expressed in transfected cells
T1 sequence (Q9V6H2 1-375): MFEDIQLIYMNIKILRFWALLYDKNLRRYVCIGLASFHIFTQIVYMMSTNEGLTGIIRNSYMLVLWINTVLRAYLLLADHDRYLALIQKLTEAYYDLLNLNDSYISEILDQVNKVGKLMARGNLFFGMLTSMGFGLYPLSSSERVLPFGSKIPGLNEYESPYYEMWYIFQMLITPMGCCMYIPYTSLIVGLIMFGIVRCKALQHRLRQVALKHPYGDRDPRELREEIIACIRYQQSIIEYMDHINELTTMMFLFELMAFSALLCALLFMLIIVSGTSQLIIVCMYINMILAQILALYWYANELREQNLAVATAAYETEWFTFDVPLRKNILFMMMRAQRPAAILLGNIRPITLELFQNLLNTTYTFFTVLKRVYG
T1 sequence (Q9VNB5 1-486 partner): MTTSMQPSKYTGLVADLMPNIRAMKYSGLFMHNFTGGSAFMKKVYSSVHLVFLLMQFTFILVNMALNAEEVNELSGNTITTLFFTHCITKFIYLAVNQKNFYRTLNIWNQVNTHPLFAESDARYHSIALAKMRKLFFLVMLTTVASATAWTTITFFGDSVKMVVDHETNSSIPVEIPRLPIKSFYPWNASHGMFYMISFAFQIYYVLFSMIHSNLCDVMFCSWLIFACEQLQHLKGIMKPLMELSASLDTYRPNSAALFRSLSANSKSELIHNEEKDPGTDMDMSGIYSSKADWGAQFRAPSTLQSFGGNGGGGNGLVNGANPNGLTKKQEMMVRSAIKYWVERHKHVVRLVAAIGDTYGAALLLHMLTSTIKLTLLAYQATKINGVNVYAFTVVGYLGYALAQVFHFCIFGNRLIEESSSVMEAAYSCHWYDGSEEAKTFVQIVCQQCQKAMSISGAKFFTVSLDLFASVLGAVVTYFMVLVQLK
In words: cell-based. The settings on record: for activation at 1 µM / activation at 10 µM / activation at 100 µM: HEK293; for Average response: mean of biological replicates. In a few lines:
(§1)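 HEK293 lines stably expressing each Drosophila OR with GCaMP6, doxycycline-induced (1 μg/mL) 48 or 72 h. Fluorescence recorded 5 s baseline then 30 s after VOC injection at pH 7.3; ΔF=(FMAX−F0)/F0, normalized to 50 µM VUAA1 response per line, triplicate wells averaged; concentration series 0.01–100 μM.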

Test [2] deals with T2, Drosophila OR13a (Drosophila melanogaster, UniProt Q9VXL0).
T2 construct: expressed in transfected cells
T2 sequence (Q9VXL0 1-418): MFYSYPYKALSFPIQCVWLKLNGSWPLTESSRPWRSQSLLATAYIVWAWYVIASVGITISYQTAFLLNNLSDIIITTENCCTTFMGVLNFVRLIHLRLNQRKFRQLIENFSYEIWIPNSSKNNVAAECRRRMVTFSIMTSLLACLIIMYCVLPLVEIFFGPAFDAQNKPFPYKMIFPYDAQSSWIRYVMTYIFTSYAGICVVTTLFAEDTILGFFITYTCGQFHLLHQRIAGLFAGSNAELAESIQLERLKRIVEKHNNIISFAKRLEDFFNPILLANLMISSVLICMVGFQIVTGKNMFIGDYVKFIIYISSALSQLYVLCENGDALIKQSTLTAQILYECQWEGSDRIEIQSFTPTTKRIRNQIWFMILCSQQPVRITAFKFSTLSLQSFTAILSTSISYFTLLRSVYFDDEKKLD
T2 sequence (Q9VNB5 1-486 partner): T1 sequence (Q9VNB5 1-486 partner)
Put plainly: Calcium ion fluorescence (GCaMP6) assay, OR13a stable HEK293 cell line. In kind it is cell-based. An outline of the steps:
as §1

[3] abbreviates: VOC concentration 1 μM, read-out: OR49b response (VUAA1-normalized response).
Where [4] appears, read: VOC concentration 10 μM, read-out: OR49b response (VUAA1-normalized response).
[5] abbreviates: VOC concentration 100 μM, read-out: OR49b response (VUAA1-normalized response).
The mark [6] stands for this setting: OR49b cell line, odorant cc. 1 µM.
[7] abbreviates: OR49b cell line, odorant cc. 10 µM.
[8] abbreviates: OR49b cell line, odorant cc. 100 µM.
The mark [9] stands for this setting: HEK293, read-out: OR13a Average response (VUAA1-normalized), 1 μM VOC, 50 μM VUAA1 = 1, responses not exceeding 0.05 considered 0.
Where [10] appears, read: HEK293, read-out: OR13a Average response (VUAA1-normalized), 10 μM VOC, 50 μM VUAA1 = 1, responses not exceeding 0.05 considered 0.
Setting [11] is: HEK293, read-out: OR13a Average response (VUAA1-normalized), 100 μM VOC, 50 μM VUAA1 = 1, responses not exceeding 0.05 considered 0.
Setting [12] is: HEK293, read-out: OR13a response (VUAA1-normalized response), VOC concentration 1 μM.
Setting [13] is: HEK293, read-out: OR13a response (VUAA1-normalized response), VOC concentration 10 μM.
The mark [14] stands for this setting: HEK293, read-out: OR13a response (VUAA1-normalized response), VOC concentration 100 μM.
The mark [15] stands for this setting: concentration 1, normalized fluorescence change, values below 0.05 threshold given as 0.
Where [16] appears, read: concentration 10, normalized fluorescence change, values below 0.05 threshold given as 0.
[17] abbreviates: concentration 100, normalized fluorescence change, values below 0.05 threshold given as 0.
Where [18] appears, read: ligand concentration 1 (unit not given), threshold 0.05, below shown as 0.
Where [19] appears, read: ligand concentration 10 (unit not given), threshold 0.05, below shown as 0.
The mark [20] stands for this setting: ligand concentration 100 (unit not given), threshold 0.05, below shown as 0.
Where [21] appears, read: 1 μM VOC, 50 μM VUAA1 = 1, read-out: OR49b Average response (VUAA1-normalized).
Setting [22] is: 10 μM VOC, 50 μM VUAA1 = 1, read-out: OR49b Average response (VUAA1-normalized).
The mark [23] stands for this setting: 100 μM VOC, 50 μM VUAA1 = 1, read-out: OR49b Average response (VUAA1-normalized).
[24] abbreviates: ligand concentration 1 (unit not given), 0.05 threshold, values below shown as 0.
Setting [25] is: ligand concentration 10 (unit not given), 0.05 threshold, values below shown as 0.
Where [26] appears, read: ligand concentration 100 (unit not given), 0.05 threshold, values below shown as 0.

Like-named read-outs stand apart in the source and are kept apart here.

Take `CC1=CCC2C(C1)C2(C)C` (stereo not drawn) [3-carene]: the “DF norm AVERAGE OR49b” value in test [1] turned out to be 0. Moreover, the activation at 1 µM in test [1] (setting [3]), in test [2] (setting [9]) and in test [2] (setting [12]) was 0% each time. For the same compound, the activation at 10 µM in test [1] (setting [4]), in test [2] (setting [10]) and in test [2] (setting [13]) was 0% each time. Besides, the activation at 100 µM in test [1] (setting [5]), in test [2] (setting [11]) and in test [2] (setting [14]) was 0% in each case. For the same compound, the Average response in test [1] (setting [6]), in test [1] (setting [7]) and in test [1] (setting [8]) was 0.00 throughout. Also, the “DF norm AVERAGE OR13a” value in test [2] (setting [15]), in test [2] (setting [16]) and in test [2] (setting [17]) was 0 each time.
Take `CCCCC(C)=O` [2-hexanone]: the “DF norm AVERAGE OR49b” value in test [1] is recorded as 0. Further, the figures for the activation at 1 µM in test [1] (setting [3]), in test [2] (setting [9]) and in test [2] (setting [12]) were 0%, 6% and 6%, respectively. Besides, the activation at 10 µM in test [1] (setting [4]), in test [2] (setting [10]) and in test [2] (setting [13]) was 0% each time. Besides, the activation at 100 µM in test [1] (setting [5]), in test [2] (setting [11]) and in test [2] (setting [14]) was 0% in each case. The Average response in test [1] (setting [6]), in test [1] (setting [7]) and in test [1] (setting [8]) was 0.00 in each case. Further, the “DF norm AVERAGE OR13a” value in test [2] (setting [15]) was determined as 0.05965; in test [2] (setting [16]), 0; in test [2] (setting [17]), 0.
Regarding `C=CC(C)(O)CCC=C(C)C` (stereo not drawn) [linalool], the “OR49b response (VUAA1-normalized) at 1 μM” value in test [1] (OR49b cell line, VOC concentration 1 μM) turned out to be 0.00. The “OR49b response (VUAA1-normalized) at 10 μM” value in test [1] (OR49b cell line, VOC concentration 10 μM) stood at 0.00. Moreover, the “OR49b response (VUAA1-normalized) at 100 μM” value in test [1] (OR49b cell line, VOC concentration 100 μM) came out at 0.00. Besides, the Average response in test [1] (setting [6]) was 0.00; in test [1] (setting [7]), 0.00; in test [1] (setting [8]), 0.0212. The “DF norm AVERAGE OR49b” value in test [1] (setting [18]), in test [1] (setting [19]) and in test [1] (setting [20]) was 0 throughout. In test [2] (setting [9]), the activation at 1 µM was 1.21%. Besides, the activation at 10 µM in test [2] (setting [10]) amounted to 4.47%. Besides, in test [2] (setting [11]), the activation at 100 µM stood at 0%. For the same compound, in test [2] (OR13a cell line, VOC concentration 1 μM), the “OR13a response (VUAA1-normalized) at 1 μM” value is listed as 0.00. The “OR13a response (VUAA1-normalized) at 10 μM” value in test [2] (OR13a cell line, VOC concentration 10 μM) was determined as 0.00. Further, the “OR13a response (VUAA1-normalized) at 100 μM” value in test [2] (OR13a cell line, VOC concentration 100 μM) stood at 0.00. Further, the “DF norm AVERAGE OR13a” value in test [2] (setting [18]), in test [2] (setting [19]) and in test [2] (setting [20]) was 0 in each case.
For the compound `Cc1ccc(C)c(C)c1` [1,2,4-trimethylbenzene], the activation at 1 µM in test [1] (setting [21]), in test [1] (setting [3]), in test [2] (setting [9]) and in test [2] (setting [12]) was 0% each time. Further, the activation at 10 µM in test [1] (setting [22]), in test [1] (setting [4]), in test [2] (setting [10]) and in test [2] (setting [13]) was 0% in each case. The activation at 100 µM in test [1] (setting [23]) is 20%; in test [1] (setting [5]) it was 20%; in test [2] (setting [11]) it was 0%; in test [2] (setting [14]) it was 0%. Also, the figures for the Average response in test [1] (setting [6]), in test [1] (setting [7]) and in test [1] (setting [8]) were 0.00, 0.00 and 0.20, respectively. Further, the “DF norm AVERAGE OR13a” value in test [2] (setting [15]), in test [2] (setting [16]) and in test [2] (setting [17]) was 0 in each case.
As for `CC/C=C\CCO` [Z3-hexenol], the Average response was 0.0226 in test [1] (setting [6]), 0.00 in test [1] (setting [7]) and 0.00 in test [1] (setting [8]). The “DF norm AVERAGE OR49b” value in test [1] (setting [24]), in test [1] (setting [25]) and in test [1] (setting [26]) was 0 each time. Moreover, the “OR13a Average response (VUAA1-normalized)” value in test [2] (1 μM VOC, 50 μM VUAA1 = 1, responses not exceeding 0.05 considered 0) is recorded as 0.04; in test [2] (10 μM VOC, 50 μM VUAA1 = 1, responses not exceeding 0.05 considered 0) it was 0.06; in test [2] (100 μM VOC, 50 μM VUAA1 = 1, responses not exceeding 0.05 considered 0), 0.00. Further, the “DF norm AVERAGE OR13a” value in test [2] (setting [24]) worked out at 0; in test [2] (setting [25]), 0.05798; in test [2] (setting [26]) it was 0.
Consider `CC(=O)OCCC(C)C` [isopentyl acetate], for which the activation at 1 µM in test [1] (setting [21]) is 0%; in test [1] (setting [3]), 0%; in test [2] (setting [9]), 3%; in test [2] (setting [12]), 0%. Further, the activation at 10 µM in test [1] (setting [22]) was found to be 0%; in test [1] (setting [4]) it was 0%; in test [2] (setting [10]) it was 4%; in test [2] (setting [13]), 0%. Also, the activation at 100 µM in test [1] (setting [23]) is 15%; in test [1] (setting [5]) it was 15%; in test [2] (setting [11]) it was 0%; in test [2] (setting [14]), 0%. The results for the Average response in test [1] (setting [6]), in test [1] (setting [7]) and in test [1] (setting [8]) were 0.00, 0.00 and 0.15, respectively. Further, the “DF norm AVERAGE OR49b” value in test [1] (setting [18]) was found to be 0; in test [1] (setting [19]), 0; in test [1] (setting [20]), 0.1516. For the same compound, the “DF norm AVERAGE OR13a” value in test [2] (setting [18]), in test [2] (setting [19]) and in test [2] (setting [20]) was 0 in each case.
As for `CCCCCC(C)=O` [2-heptanone], the “DF norm AVERAGE OR49b” value in test [1] came to 0. Further, the activation at 1 µM in test [1] (setting [3]), in test [2] (setting [9]) and in test [2] (setting [12]) was 0% throughout. For the same compound, the activation at 10 µM in test [1] (setting [4]) stood at 0%; in test [2] (setting [10]), 2.36%; in test [2] (setting [13]), 0%. Also, the activation at 100 µM was found to be 0% in test [1] (setting [5]), 1.75% in test [2] (setting [11]) and 0% in test [2] (setting [14]). For the same compound, the Average response is reported as 0.00 in test [1] (setting [6]), 0.00 in test [1] (setting [7]) and 0.02 in test [1] (setting [8]). For the same compound, the “DF norm AVERAGE OR13a” value in test [2] (setting [15]), in test [2] (setting [16]) and in test [2] (setting [17]) was 0 in each case.
